{"source": "patent US6358885B1", "about": "“Substituted phenylheterocyclic herbicides” (Mississippi State University, priority 1992, dated 2002)", "test_in_all_cases": "Test B preemergence/postemergence greenhouse plant response rating 0 to 10", "key": {"[1]": {"tested_on": "wild buckwheat", "format": "in vivo, Polygonum convolvulus", "details": "for Plant response rating, Wild buckwheat: 0 to 10 scale; for Plant response rating (0 to 10 scale), Wild buckwheat: Rate 100 g/ha", "in_short": "(§1)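 Both application timings were run together: seeds got compound preemergence, and established seedlings (two to eighteen cm) got it postemergence. Non-phytotoxic solvent carried the chemical. Ratings are visual, versus controls, at twelve to sixteen days.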"}, "[2]": {"tested_on": "corn", "format": "in vivo, Zea mays", "details": "for Plant response rating, Corn: 0 to 10 scale", "in_short": "as §1"}, "[3]": {"tested_on": "cheatgrass", "format": "in vivo, Bromus secalinus", "details": "for Plant response rating, Cheatgrass: 0 to 10 scale", "in_short": "as §1"}, "[4]": {"tested_on": "chickweed", "format": "in vivo, Stellaria media", "details": "for Plant response rating, Chickweed: 0 to 10 scale", "in_short": "as §1"}, "[5]": {"tested_on": "wild oat", "format": "in vivo, Avena fatua", "details": "for Plant response rating, Wild oat: 0 to 10 scale; for Plant response rating (0 to 10 scale), Wild oat: Rate 100 g/ha", "in_short": "as §1"}, "[6]": {"tested_on": "giant foxtail", "format": "in vivo, Setaria faberii", "details": "for Plant response rating, Giant foxtail: 0 to 10 scale; for Plant response rating (0 to 10 scale), Giant foxtail: Rate 100 g/ha", "in_short": "as §1"}, "[7]": {"tested_on": "sorghum", "format": "in vivo, Sorghum bicolor", "details": "for Plant response rating, Sorghum: 0 to 10 scale; for Plant response rating (0 to 10 scale), Sorghum: Rate 100 g/ha", "in_short": "as §1"}}}
{"smiles": "Clc1ccc(-c2nc3n(c2Cl)CCC=C3)c(Cl)c1", "note": "[Compound 1]", "values": [{"measurement": "Plant response rating, Wild buckwheat", "setting": "[1]; POSTEMERGENCE, Rate 50 g/ha", "value": 5}, {"measurement": "Plant response rating, Wild buckwheat", "setting": "[1]; POSTEMERGENCE, Rate 200 g/ha", "value": 9}, {"measurement": "Plant response rating, Wild buckwheat", "setting": "[1]; Rate 200 g/ha, PREEMERGENCE", "value": 0}, {"measurement": "Plant response rating (0 to 10 scale), Corn", "setting": "[2]; POSTEMERGENCE, Rate 50 g/ha", "value": 2}, {"measurement": "Plant response rating, Corn", "setting": "[2]; POSTEMERGENCE, Rate 200 g/ha", "value": 2}, {"measurement": "Plant response rating, Corn", "setting": "[2]; PREEMERGENCE, Rate 50 g/ha", "value": 0}, {"measurement": "Plant response rating, Corn", "setting": "[2]; Rate 200 g/ha, PREEMERGENCE", "value": 0}, {"measurement": "Plant response rating (0 to 10 scale), Cheatgrass", "setting": "[3]; POSTEMERGENCE, Rate 50 g/ha", "value": 2}, {"measurement": "Plant response rating, Cheatgrass", "setting": "[3]; POSTEMERGENCE, Rate 200 g/ha", "value": 2}, {"measurement": "Plant response rating, Cheatgrass", "setting": "[3]; PREEMERGENCE, Rate 50 g/ha", "value": 0}, {"measurement": "Plant response rating, Cheatgrass", "setting": "[3]; Rate 200 g/ha, PREEMERGENCE", "value": 0}, {"measurement": "Plant response rating (0 to 10 scale), Chickweed", "setting": "[4]; POSTEMERGENCE, Rate 50 g/ha", "value": 0}, {"measurement": "Plant response rating, Chickweed", "setting": "[4]; POSTEMERGENCE, Rate 200 g/ha", "value": 2}, {"measurement": "Plant response rating, Chickweed", "setting": "[4]; PREEMERGENCE, Rate 50 g/ha", "value": 0}, {"measurement": "Plant response rating, Chickweed", "setting": "[4]; Rate 200 g/ha, PREEMERGENCE", "value": 0}, {"measurement": "Plant response rating, Wild oat", "setting": "[5]; POSTEMERGENCE, Rate 50 g/ha", "value": 2}, {"measurement": "Plant response rating, Wild oat", "setting": "[5]; POSTEMERGENCE, Rate 200 g/ha", "value": 2}, {"measurement": "Plant response rating, Wild oat", "setting": "[5]; Rate 200 g/ha, PREEMERGENCE", "value": 0}, {"measurement": "Plant response rating, Giant foxtail", "setting": "[6]; POSTEMERGENCE, Rate 50 g/ha", "value": 3}, {"measurement": "Plant response rating, Giant foxtail", "setting": "[6]; POSTEMERGENCE, Rate 200 g/ha", "value": 3}, {"measurement": "Plant response rating, Giant foxtail", "setting": "[6]; PREEMERGENCE, Rate 50 g/ha", "value": 0}, {"measurement": "Plant response rating, Giant foxtail", "setting": "[6]; Rate 200 g/ha, PREEMERGENCE", "value": 0}, {"measurement": "Plant response rating, Sorghum", "setting": "[7]; POSTEMERGENCE, Rate 50 g/ha", "value": 4}, {"measurement": "Plant response rating, Sorghum", "setting": "[7]; POSTEMERGENCE, Rate 200 g/ha", "value": 4}, {"measurement": "Plant response rating, Sorghum", "setting": "[7]; PREEMERGENCE, Rate 50 g/ha", "value": 0}, {"measurement": "Plant response rating, Sorghum", "setting": "[7]; Rate 200 g/ha, PREEMERGENCE", "value": 0}]}
{"smiles": "Clc1ccc(-c2nc3n(c2Br)CCCC3)c(Cl)c1", "note": "[Compound 2]", "values": [{"measurement": "Plant response rating, Wild buckwheat", "setting": "[1]; POSTEMERGENCE, Rate 50 g/ha", "value": 10}, {"measurement": "Plant response rating (0 to 10 scale), Wild buckwheat", "setting": "[1]; POSTEMERGENCE", "value": 10}, {"measurement": "Plant response rating, Wild buckwheat", "setting": "[1]; POSTEMERGENCE, Rate 200 g/ha", "value": 10}, {"measurement": "Plant response rating, Wild buckwheat", "setting": "[1]; POSTEMERGENCE, Rate 400 g/ha", "value": 10}, {"measurement": "Plant response rating, Wild buckwheat", "setting": "[1]; PREEMERGENCE, Rate 50 g/ha", "value": 0}, {"measurement": "Plant response rating (0 to 10 scale), Wild buckwheat", "setting": "[1]; PREEMERGENCE", "value": 0}, {"measurement": "Plant response rating, Wild buckwheat", "setting": "[1]; PREEMERGENCE, Rate 400 g/ha", "value": 0}, {"measurement": "Plant response rating, Wild buckwheat", "setting": "[1]; Rate 200 g/ha, PREEMERGENCE", "value": 0}, {"measurement": "Plant response rating (0 to 10 scale), Corn", "setting": "[2]; POSTEMERGENCE, Rate 50 g/ha", "value": 3}, {"measurement": "Plant response rating (0 to 10 scale), Corn", "setting": "[2]; POSTEMERGENCE, Rate 100 g/ha", "value": 3}, {"measurement": "Plant response rating, Corn", "setting": "[2]; POSTEMERGENCE, Rate 200 g/ha", "value": 4}, {"measurement": "Plant response rating, Corn", "setting": "[2]; POSTEMERGENCE, Rate 400 g/ha", "value": 4}, {"measurement": "Plant response rating, Corn", "setting": "[2]; PREEMERGENCE, Rate 50 g/ha", "value": 0}, {"measurement": "Plant response rating (0 to 10 scale), Corn", "setting": "[2]; PREEMERGENCE, Rate 100 g/ha", "value": 0}, {"measurement": "Plant response rating, Corn", "setting": "[2]; PREEMERGENCE, Rate 400 g/ha", "value": 0}, {"measurement": "Plant response rating, Corn", "setting": "[2]; Rate 200 g/ha, PREEMERGENCE", "value": 0}, {"measurement": "Plant response rating (0 to 10 scale), Cheatgrass", "setting": "[3]; POSTEMERGENCE, Rate 50 g/ha", "value": 2}, {"measurement": "Plant response rating (0 to 10 scale), Cheatgrass", "setting": "[3]; POSTEMERGENCE, Rate 100 g/ha", "value": 2}, {"measurement": "Plant response rating, Cheatgrass", "setting": "[3]; POSTEMERGENCE, Rate 200 g/ha", "value": 3}, {"measurement": "Plant response rating, Cheatgrass", "setting": "[3]; POSTEMERGENCE, Rate 400 g/ha", "value": 4}, {"measurement": "Plant response rating, Cheatgrass", "setting": "[3]; PREEMERGENCE, Rate 50 g/ha", "value": 0}, {"measurement": "Plant response rating (0 to 10 scale), Cheatgrass", "setting": "[3]; PREEMERGENCE, Rate 100 g/ha", "value": 0}, {"measurement": "Plant response rating, Cheatgrass", "setting": "[3]; PREEMERGENCE, Rate 400 g/ha", "value": 0}, {"measurement": "Plant response rating, Cheatgrass", "setting": "[3]; Rate 200 g/ha, PREEMERGENCE", "value": 0}, {"measurement": "Plant response rating (0 to 10 scale), Chickweed", "setting": "[4]; POSTEMERGENCE, Rate 50 g/ha", "value": 1}, {"measurement": "Plant response rating (0 to 10 scale), Chickweed", "setting": "[4]; POSTEMERGENCE, Rate 100 g/ha", "value": 2}, {"measurement": "Plant response rating, Chickweed", "setting": "[4]; POSTEMERGENCE, Rate 200 g/ha", "value": 2}, {"measurement": "Plant response rating, Chickweed", "setting": "[4]; POSTEMERGENCE, Rate 400 g/ha", "value": 2}, {"measurement": "Plant response rating, Chickweed", "setting": "[4]; PREEMERGENCE, Rate 50 g/ha", "value": 0}, {"measurement": "Plant response rating (0 to 10 scale), Chickweed", "setting": "[4]; PREEMERGENCE, Rate 100 g/ha", "value": 0}, {"measurement": "Plant response rating, Chickweed", "setting": "[4]; PREEMERGENCE, Rate 400 g/ha", "value": 0}, {"measurement": "Plant response rating, Chickweed", "setting": "[4]; Rate 200 g/ha, PREEMERGENCE", "value": 0}, {"measurement": "Plant response rating, Wild oat", "setting": "[5]; POSTEMERGENCE, Rate 50 g/ha", "value": 2}, {"measurement": "Plant response rating (0 to 10 scale), Wild oat", "setting": "[5]; POSTEMERGENCE", "value": 2}, {"measurement": "Plant response rating, Wild oat", "setting": "[5]; POSTEMERGENCE, Rate 200 g/ha", "value": 3}, {"measurement": "Plant response rating, Wild oat", "setting": "[5]; POSTEMERGENCE, Rate 400 g/ha", "value": 3}, {"measurement": "Plant response rating (0 to 10 scale), Wild oat", "setting": "[5]; PREEMERGENCE", "value": 0}, {"measurement": "Plant response rating, Wild oat", "setting": "[5]; PREEMERGENCE, Rate 400 g/ha", "value": 0}, {"measurement": "Plant response rating, Wild oat", "setting": "[5]; Rate 200 g/ha, PREEMERGENCE", "value": 0}, {"measurement": "Plant response rating, Giant foxtail", "setting": "[6]; POSTEMERGENCE, Rate 50 g/ha", "value": 4}, {"measurement": "Plant response rating (0 to 10 scale), Giant foxtail", "setting": "[6]; POSTEMERGENCE", "value": 4}, {"measurement": "Plant response rating, Giant foxtail", "setting": "[6]; POSTEMERGENCE, Rate 200 g/ha", "value": 5}, {"measurement": "Plant response rating, Giant foxtail", "setting": "[6]; POSTEMERGENCE, Rate 400 g/ha", "value": 6}, {"measurement": "Plant response rating, Giant foxtail", "setting": "[6]; PREEMERGENCE, Rate 50 g/ha", "value": 0}, {"measurement": "Plant response rating (0 to 10 scale), Giant foxtail", "setting": "[6]; PREEMERGENCE", "value": 0}, {"measurement": "Plant response rating, Giant foxtail", "setting": "[6]; PREEMERGENCE, Rate 400 g/ha", "value": 7}, {"measurement": "Plant response rating, Giant foxtail", "setting": "[6]; Rate 200 g/ha, PREEMERGENCE", "value": 0}, {"measurement": "Plant response rating, Sorghum", "setting": "[7]; POSTEMERGENCE, Rate 50 g/ha", "value": 4}, {"measurement": "Plant response rating (0 to 10 scale), Sorghum", "setting": "[7]; POSTEMERGENCE", "value": 4}, {"measurement": "Plant response rating, Sorghum", "setting": "[7]; POSTEMERGENCE, Rate 200 g/ha", "value": 5}, {"measurement": "Plant response rating, Sorghum", "setting": "[7]; POSTEMERGENCE, Rate 400 g/ha", "value": 5}, {"measurement": "Plant response rating, Sorghum", "setting": "[7]; PREEMERGENCE, Rate 50 g/ha", "value": 0}, {"measurement": "Plant response rating (0 to 10 scale), Sorghum", "setting": "[7]; PREEMERGENCE", "value": 0}, {"measurement": "Plant response rating, Sorghum", "setting": "[7]; PREEMERGENCE, Rate 400 g/ha", "value": 0}, {"measurement": "Plant response rating, Sorghum", "setting": "[7]; Rate 200 g/ha, PREEMERGENCE", "value": 0}]}
